According to patent US20080300298A1, “Honokiol Derivates For the Treatment of Proliferative Disorders” (priority 2005, published 2008):

Legend:
[1] = test system: STAT-3, ERK and Akt phosphorylation in MM.1S cells; test: Western blotting of IL-6 / IGF-1 growth signaling; format: cell-based, human; details: 10 ug/ml HNK for 3 and 6 h, then IL-6 (10 ng/ml) or IGF-1 (25 ng/ml)
[2] = test system: SHSY5Y and SHEP neuroblastoma cells; test: cancer cell viability, TSA in combination with honokiol; format: cell-based; details: 0-1 uM TSA alone or in combination with honokiol
Excerpt: In FIG. 43, the effects on cancer cell viability after treatment with trichostatin A (TSA), a histone deacetylase inhibitor, in combination with honokiol were examined.

IKK = target: T1, IKK (Homo sapiens, UniProt O14920+O15111); test: IKK assay (immune complex kinase assay); format: cell-based
T1 construct: 200 mg of extract was immunoprecipitated with antibodies against IKKa and IKKb; endogenous in cells; host or cells: H1299 cells, whole-cell extracts, immunoprecipitated
Method: Honokiol inhibits TNF-induced activation of NF-kB. H1299 cells were incubated with […] honokiol for 12 h, treated with 0.1 nM TNF for the indicated times, and then analyzed for NF-kB activation by EMSA. (B) H1299 cells (2×10^6/ml) were incubated with […] honokiol for 12 h at 37° C., treated with 0.1 nM TNF for the indicated times at 37° C., and then tested for IkBa (upper panel) in cytosolic fractions by Western blot analysis. Equal protein loading was evaluated by b-actin (lower panel). (C) Honokiol blocks the phosphorylation and ubiquitination (D) of IkBaby TNF. […] To examine the effect of honokiol on the level of expression of IKK proteins, 30 mg of whole-cell extract was analyzed on 10% SDS-PAGE, electrotransferred, and immunoblotted with the indicated antibodies as described in Materials and Methods. […] Nuclear extracts were prepared and analyzed by Western blotting using antibodies against p65. […] The cytoplasmic and nuclear extracts were analyzed by Western blotting using antibodies against the phosphorylated form of p65.
IKK assay. To determine the effect of honokiol on TNF-induced IKK activation, we analyzed IKK by a method essentially as described previously (Shishodia, S., et al. 2003 Cancer Res. 63:4375-4383). […]

T1 sequence (O15111 whole entry): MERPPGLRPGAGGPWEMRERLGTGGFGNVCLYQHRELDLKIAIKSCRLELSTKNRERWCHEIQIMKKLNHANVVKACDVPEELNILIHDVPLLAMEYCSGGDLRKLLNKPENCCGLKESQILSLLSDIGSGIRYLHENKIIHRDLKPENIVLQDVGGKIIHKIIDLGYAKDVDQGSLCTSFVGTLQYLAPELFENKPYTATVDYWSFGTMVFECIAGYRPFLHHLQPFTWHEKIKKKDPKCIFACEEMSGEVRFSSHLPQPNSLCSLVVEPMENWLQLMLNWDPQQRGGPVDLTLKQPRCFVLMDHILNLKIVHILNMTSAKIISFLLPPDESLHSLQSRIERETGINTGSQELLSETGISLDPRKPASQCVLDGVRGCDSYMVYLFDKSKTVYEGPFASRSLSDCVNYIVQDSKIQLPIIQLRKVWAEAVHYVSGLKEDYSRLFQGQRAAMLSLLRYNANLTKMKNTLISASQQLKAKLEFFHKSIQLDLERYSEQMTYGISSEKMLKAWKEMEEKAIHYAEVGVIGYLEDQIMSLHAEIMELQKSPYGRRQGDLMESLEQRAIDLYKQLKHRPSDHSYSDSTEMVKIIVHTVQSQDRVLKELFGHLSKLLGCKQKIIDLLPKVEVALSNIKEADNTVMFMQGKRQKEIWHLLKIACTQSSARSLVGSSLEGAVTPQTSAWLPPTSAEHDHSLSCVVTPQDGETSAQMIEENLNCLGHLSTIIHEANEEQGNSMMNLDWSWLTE
T1 sequence (O14920 whole entry): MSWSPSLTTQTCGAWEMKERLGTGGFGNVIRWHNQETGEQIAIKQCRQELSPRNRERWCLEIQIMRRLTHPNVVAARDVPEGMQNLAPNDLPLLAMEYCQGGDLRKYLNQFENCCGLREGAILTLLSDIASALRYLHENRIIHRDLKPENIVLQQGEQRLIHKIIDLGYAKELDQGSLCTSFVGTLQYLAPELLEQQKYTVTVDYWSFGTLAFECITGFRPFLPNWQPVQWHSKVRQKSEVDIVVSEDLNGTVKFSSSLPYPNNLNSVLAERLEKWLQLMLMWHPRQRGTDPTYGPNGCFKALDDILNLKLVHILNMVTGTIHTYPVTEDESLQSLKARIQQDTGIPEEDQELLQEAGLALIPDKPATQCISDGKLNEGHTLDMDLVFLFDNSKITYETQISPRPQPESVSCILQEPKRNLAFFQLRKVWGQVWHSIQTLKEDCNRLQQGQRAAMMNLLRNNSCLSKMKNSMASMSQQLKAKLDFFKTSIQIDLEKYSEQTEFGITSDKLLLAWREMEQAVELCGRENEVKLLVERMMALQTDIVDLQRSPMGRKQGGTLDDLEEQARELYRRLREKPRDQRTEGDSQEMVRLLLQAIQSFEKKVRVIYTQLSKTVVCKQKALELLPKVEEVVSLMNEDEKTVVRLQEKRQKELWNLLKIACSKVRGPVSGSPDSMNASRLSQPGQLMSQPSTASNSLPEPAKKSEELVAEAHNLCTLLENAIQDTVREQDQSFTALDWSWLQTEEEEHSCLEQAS
T1 sequence (Q9Y6K9 whole entry partner): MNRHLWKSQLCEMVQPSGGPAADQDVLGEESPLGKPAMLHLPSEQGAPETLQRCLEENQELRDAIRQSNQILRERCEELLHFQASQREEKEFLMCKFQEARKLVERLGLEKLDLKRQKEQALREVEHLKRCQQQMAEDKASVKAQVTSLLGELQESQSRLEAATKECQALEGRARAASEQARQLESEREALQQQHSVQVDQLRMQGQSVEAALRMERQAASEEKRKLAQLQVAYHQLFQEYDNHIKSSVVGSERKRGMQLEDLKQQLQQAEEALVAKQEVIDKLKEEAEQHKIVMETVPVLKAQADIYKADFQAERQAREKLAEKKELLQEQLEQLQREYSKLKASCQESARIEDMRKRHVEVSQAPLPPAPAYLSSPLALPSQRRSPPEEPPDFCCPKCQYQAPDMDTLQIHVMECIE

`C=CCc1ccc(O)c(-c2ccc(O)c(CC=C)c2)c1` [HNK, Honokiol] was tested, and the “phosphorylation induced by IL-6 and IGF-1” value [1] was “significantly reduced phosphorylation of STAT-3, ERK and Akt induced by IL-6, as well as ERK and Akt induced by IGF-1”, the “percent of viable cells, combination with TSA compared with TSA alone” value [2] was “significant decrease in the percent of viable cells” and the “TNF-induced IKK activation” value (IKK; cells treated with honokiol 12 h, 0.1 nM TNF) was “completely suppressed TNF-induced activation of IKK”. The “IKK activity in vitro (direct effect)” value (IKK; in vitro) was “did not directly interfere with the IKK activity”.
